For series [1], the system named is HK-2 human kidney cells (human renal proximal tubule epithelial cells). Description: Sirolimus-induced apoptotic cell death of HK-2 cells, histone-associated DNA fragmentation. It counts as cell-based. The note with it: 100 ng/ml sirolimus for 24 hours, HK-2 cells. The procedure:
The HK-2 human kidney cells were cultured in Keratinocyte-Serum Free Medium supplemented with recombinant epidermal growth factor and bovine pituitary extract. The dose-dependent inhibitory effect of PACAP38 on apoptotic cell death was assessed by the quantitative determination of cytoplasmic histone-associated DNA-fragmentation (mono- and oligonucleosomes) after exposure to 100 ng/ml of sirolimus for 24 hours. Each value represents the mean plus/minus the standard error of eight determinations. **p<0.01 and *p<0.05 compared to the cells treated only with sirolimus.

The test system of series [2] is light-chain immunoglobulin-secreting human multiple myeloma cells. Description: Proliferation of multiple myeloma cells with sirolimus, bromodeoxyuridine incorporation. It counts as cell-based. The note with it: multiple myeloma cells with sirolimus, 10^−9 M to 10^−6 M peptide, 24-hour incubation. The procedure:
The light-chain immunoglobulin-secreting human multiple myeloma cells were cultured in RPMI 1640 medium supplemented with 10% non-inactivated fetal bovine serum and 0.05 mM 2-mercaptoethanol. The effects of PACAP38, PACAP27 and PACAP analogs on myeloma cell proliferation were assessed by determining incorporation of bromodeoxyuridine into DNA during cell division. The number of myeloma cells approximately doubled during the 24-hour incubation period in the absence of treatment with PACAP-like peptides. Four different concentrations, ranging from 10^−9 M to 10^−6 M, were tested for PACAP38, PACAP27 and each of the PACAP analogs. Each value represents the mean plus/minus the standard error of four determinations. **p<0.01 and *p<0.05 compared to the cells treated only with sirolimus.
The effects of PACAP38, PACAP27 and PACAP analogs on human cell proliferation were assessed by determining incorporation of bromodeoxyuridine into DNA during cell division. […] At the highest dose (10^−6 M), PACAP38 inhibited the proliferation by more than 50%.

The test system of series [3] is NCI-H838 human non-small cell lung cancer cells. To be noted: nude mice; cited from earlier work.
The subject of series [4] is PC-3 human prostate cancer cells. To be noted: nude mice; cited from earlier work.
For series [5], the system named is MCF-7 human breast cancer cells. To be noted: nude mice; cited from earlier work.
The subject of series [6] is HK-2 human kidney cells (human renal proximal tubule epithelial cells). Description: Tacrolimus-induced loss of viability of HK-2 cells, lactate dehydrogenase in intact cells. It counts as cell-based. The note with it: various concentrations of peptide added to medium. The procedure: The HK-2 human kidney cells were cultured in Keratinocyte-Serum Free Medium supplemented with recombinant epidermal growth factor and bovine pituitary extract. […] Each value represents the mean plus/minus the standard error of five determinations. **p<0.01 and *p<0.05 compared to the cells treated only with tacrolimus.

Series [7] has as its system Jurkat human T-lymphocyte cells. Description: Proliferation of Jurkat cells, bromodeoxyuridine incorporation. It counts as cell-based. The note with it: mitogen-stimulated Jurkat cells, 24 hours. On the procedure:
The Jurkat human T-lymphocyte cells were cultured in RPMI 1640 medium supplemented with 10% heat-inactivated fetal calf serum. The Jurkat cells were stimulated with mitogens (1 mg/ml of PHA and 50 ng/ml of PMA).
(§1) However, when Jurkat cells were stimulated with PHA and PMA, large quantities of interleukin-2 could be detected in the medium (FIG. 9). […] At the highest dose (10^−5 M), PACAP38 inhibited the proliferation of the Jurkat cells by more than 50%.

Series [8] shares this test system. Description: Mitogen-stimulated secretion of interleukin-2 from Jurkat cells. It counts as cell-based. To be noted: PHA and PMA stimulated Jurkat cells, 24 hours. The procedure:
The Jurkat human T-lymphocyte cells were cultured in RPMI 1640 medium supplemented with 10% heat-inactivated fetal calf serum. The Jurkat cells were stimulated with the mitogens phytohemagglutinin (PHA, 1 mg/ml) and phorbol 12-myristate 13-acetate (PMA, 50 ng/ml). […] Each value represents the mean plus/minus the standard error of eight determinations. **p<0.01 and *p<0.05 compared to the cells treated only with the mitogens.
as §1

Series [9] has the same test system. Description: Inhibition by cyclosporine A of IL-2 secretion from Jurkat cells, enhancement by peptides. It counts as cell-based. The note with it: peptide added on top of cyclosporine, 24 hours. On the procedure: The Jurkat human T-lymphocyte cells were cultured in RPMI 1640 medium supplemented with 10% heat-inactivated fetal calf serum. The Jurkat cells were stimulated with mitogens (1 mg/ml of PHA and 50 ng/ml of PMA). […] Each value represents the mean plus/minus the standard error of eight determinations. **p<0.01 and *p<0.05 compared to the cells treated only with the mitogens.
However, when Jurkat cells were stimulated with PHA and PMA, large quantities of interleukin-2 could be detected in the medium (FIG. 11).

For series [10] the following is noted: rat, in vivo, iv; cited from earlier work.

Where no end group is shown, it is not given here. [ ]: non-standard residue; d: D form. The star is where a group is joined. Palmitoyl = CCCCCCCCCCCCCCCC(=O)*; Aib = CC(C)(N)C(=O)O

As to `CO[C@H]1C[C@@H]2CC[C@@H](C)[C@@](O)(O2)C(=O)C(=O)N2CCCC[C@H]2C(=O)O[C@H]([C@H](C)C[C@@H]2CC[C@@H](O)[C@H](OC)C2)CC(=O)[C@H](C)/C=C(\C)[C@@H](O)[C@@H](OC)C(=O)[C@H](C)C[C@H](C)/C=C/C=C/C=C/1C` [sirolimus, reference compound], in series [1], the apoptotic cell death result is “large significant increase in apoptotic cell death”.

Take “PACAP27 (HSDGIFTDSYSRYRKQMAVKKYLAAVL-NH2; listed as Homo sapiens)”: in [2], the “rate of proliferation of the human B-lymphocyte cell line” value is on record as “significant dose-dependent inhibition”.

“PACAP(6-38) (FTDSYSRYRKQMAVKKYLAAVLGKRYKQRVKNK; ends and bridges not checked; UniProt P18509 137-169, looked up, fragment) [a PACAP/VIP receptor antagonist]”: the growth of xenografts entry in series [3], in series [4] and in [5] was “inhibited the growth” each time.

With “VIP (HSDAVFTDNYTRLRKQMAVKKYLNSILN-NH2; listed as Homo sapiens)”, the “loss of viable human renal proximal tubule epithelial cells caused by tacrolimus” value (“loss” for short) in series [6] is “significant dose-dependent reduction”. For the same compound, in series [7], the “rate of proliferation of the human T-lymphocyte cell line” value was “significant dose-dependent inhibition”. For the same compound, the “mitogen-induced secretion of interleukin-2 into the medium” value in series [8] is given as “large significant inhibition”. For the same compound, in series [9], the “cyclosporine-induced inhibition of interleukin-2 secretion” value is reported as “small dose-dependent enhancement”. “[Aib^2]PACAP38 (H[Aib]DGIFTDSYSRYRKQMAVKKYLAAVLGKRYKQRVKNK; ends and bridges not checked)”: in series [2], the “rate of proliferation of the human B-lymphocyte cell line” value was “significant dose-dependent inhibition”. The “rate of proliferation of the human T-lymphocyte cell line” value in series [7] is listed as “significant dose-dependent inhibition”. Turning to “[Ala^16,Ala^17,D-Lys^38]PACAP38 (HSDGIFTDSYSRYRKAAAVKKYLAAVLGKRYKQRVKN[dK]; ends and bridges not checked)”, the “loss” value in series [6] is recorded as “significant dose-dependent reduction”. Take “[Ala^22]PACAP38 (HSDGIFTDSYSRYRKQMAVKKALAAVLGKRYKQRVKNK; ends and bridges not checked)”: the “rate of proliferation of the human B-lymphocyte cell line” value in series [2] is given as “significant dose-dependent inhibition”. For the compound “[D-Ser^2,Lys^38-palmitoyl]PACAP38 (H[dS]DGIFTDSYSRYRKQMAVKKYLAAVLGKRYKQRVKNK(Palmitoyl); not fully specified (C-terminus))”, the “loss” value in series [6] is on record as “significant dose-dependent reduction”. On to “[D-Ser^2]PACAP38 (H[dS]DGIFTDSYSRYRKQMAVKKYLAAVLGKRYKQRVKNK; not fully specified (C-terminus))”, for which, in [6], the “loss” value is on record as “significant dose-dependent reduction”. Besides, in series [7], the “rate of proliferation of the human T-lymphocyte cell line” value is given as “significant dose-dependent inhibition”. In series [8], the “mitogen-induced secretion of interleukin-2 into the medium” value is listed as “large significant inhibition”. The “cyclosporine-induced inhibition of interleukin-2 secretion” value in [9] is “small dose-dependent enhancement”.

Consider “[Lys^34]PACAP38 (HSDGIFTDSYSRYRKQMAVKKYLAAVLGKRYKQKVKNK; ends and bridges not checked)”, for which the “rate of proliferation of the human B-lymphocyte cell line” value in [2] is “significant dose-dependent inhibition”. For [^125I]-PACAP38, the “half-life in the bloodstream” value in series [10] was 5 to 6 min.

The values above are taken from patent US20120309683A1, “USE OF […] ADENYLATE CYCLASE-ACTIVATING POLYPEPTIDE (PACAP) AND PACAP ANALOGS AS ADJUNCTIVE TREATMENTS WITH INHIBITORS OF CALCINEURIN OR INHIBITORS OF THE […] TARGET OF RAPAMYCIN (mTOR) COMPLEXES” (The Administrators of the Tulane Educational Fund, priority 2010, published 2012).
